Measurements taken from ChEMBL document CHEMBL1147900, “Immuno-stimulating properties of diosgenyl saponins isolated from Paris polyphylla” (Bioorg Med Chem Lett, 2007).
Calls of active or inactive are those of the source. The calls are words filed in the database; no cut-off is given here.

Tests used:
Format in all cases: functional, cell-based
RAW [1] = assay: Effect on phagocytic activity in mouse RAW 264.7 cells after 24 hrs
RAW [2] = assay: Effect on phagocytic activity in mouse RAW 264.7 cells at 10 uM after 24 hrs
RAW [3] = assay: Effect on NO production in mouse RAW 264.7 cells at 100 nM
RAW [4] = assay: Induction of respiratory burst in mouse RAW 264.7 cells at 10 nM assessed as superoxide anion production after 2 hrs by NBT test

SMILES: C[C@H]1CC[C@@]2(OC1)O[C@H]1C[C@H]3[C@@H]4CC=C5C[C@@H](O[C@@H]6O[C@@H](CO)[C@H](O[C@H]7O[C@H](C)[C@@H](O[C@H]8O[C@H](C)[C@@H](O)[C@H](O)[C@@H]8O)[C@H](O)[C@@H]7O)[C@@H](O)[C@@H]6O[C@@H]6O[C@@H](C)[C@@H](O)[C@H](O)[C@@H]6O)CC[C@]5(C)[C@H]4CC[C@]3(C)[C@H]1[C@@H]2C
- Activity (RAW [1]): Active
- Activity (RAW [2]): Active
- Activity (RAW [3]): Active
- Activity (RAW [4]): Active

SMILES: C[C@@H]1CC[C@@]2(OC1)O[C@H]1C[C@H]3[C@@H]4CC=C5C[C@@H](O)CC[C@]5(C)[C@H]4CC[C@]3(C)[C@H]1[C@@H]2C
- Activity (RAW [1]): Active
- Activity (RAW [3]): inactive
- Activity (RAW [4]): inactive
